Results from PubChem BioAssay (NCI).
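Each compound was tested at five concentrations against cells in 96-well plates for 48 hours. TGI: total growth inhibition.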

Tests used:
Experiment in all cases: inhibition of tumour cell growth, NCI panel, 48 h
[1] = tested on: MDA-MB-231 breast
[2] = tested on: M14 melanoma
[3] = tested on: NCI-H226 lung
[4] = tested on: CCRF-CEM leukemia
[5] = tested on: EKVX NSCLC
[6] = tested on: SNB-75 CNS
[7] = tested on: T-47D breast
[8] = tested on: KM12 colon
[9] = tested on: MALME-3M melanoma
[10] = tested on: HCT-116 colon
[11] = tested on: IGROV1 ovarian
[12] = tested on: K-562 leukemia
[13] = tested on: RXF 393 renal
[14] = tested on: RPMI-8226 leukemia
[15] = tested on: COLO 205 colon

Row | SMILES | TGI [1] [µM] | TGI [2] [µM] | TGI [3] [µM] | TGI [4] [µM] | TGI [5] [µM] | TGI [6] [µM] | TGI [7] [µM] | TGI [8] [µM] | TGI [9] [µM] | TGI [10] [µM] | TGI [11] [µM] | TGI [12] [µM] | TGI [13] [µM] | TGI [14] [µM] | TGI [15] [µM]
1 | Cc1ccc(O)c(-c2cc(-c3ccccc3)nc(/N=C\c3ccccc3)n2)c1 | > 100 | > 100 | > 100 | > 100 | > 100 | 40.9 | > 100 | > 100 | > 100 | > 100 | 44 | > 100 | – | – | –
2 | O=C1CC(NCCCNC2CC(=O)c3c(Br)sc(Br)c32)c2c(Br)sc(Br)c21 (centres undefined) | 4.3 | 4.39 | 12.6 | – | 4.8 | 7.68 | 5.28 | 3.5 | 4.21 | 2.41 | 3.7 | – | 3.62 | > 100 | 5.89
3 | Cc1ccc(C)c(NC(=O)/C(=N\N)C(c2cnc3ccc([N+](=O)[O-])cc3n2)[N+](=O)[O-])c1 (centres undefined) | > 100 | > 100 | > 100 | 25.9 | > 100 | > 100 | > 100 | > 100 | > 100 | > 100 | > 100 | > 100 | > 100 | > 100 | –
4 | Nc1ncnc2c1ccn2CC=C(CO)CO | > 100 | > 100 | > 100 | > 100 | > 100 | > 100 | > 100 | > 100 | > 100 | > 100 | > 100 | > 100 | > 100 | > 100 | –
5 | CC(=O)[C@H]1[C@@H](OCc2ccccc2)O[N+]([O-])=C(C)[C@@H]1c1ccccc1 | > 100 | > 100 | > 100 | 44.1 | > 100 | > 100 | 58.1 | > 100 | 47 | – | > 100 | 38 | 34.2 | 37.9 | > 100
6 | c1ccc(-c2sc(-c3ccccc3)c3c2C2CCC3C2)cc1 | > 100 | > 100 | 83.3 | > 100 | > 100 | – | > 100 | > 100 | > 100 | > 100 | > 100 | > 100 | 84.5 | 44.9 | 38.1
7 | O=C1CC(NC2CC(=O)c3c(Br)sc(Br)c32)c2c(Br)sc(Br)c21 (centres undefined) | 10.3 | 11.9 | 34.1 | 3.17 | 22.7 | 31.4 | 8.25 | 6.03 | 5.62 | 6.46 | 8.43 | > 21.5 | 8.86 | – | 8.77
8 | CN1C(=O)CN=C(c2ccccc2F)c2cc(N=C=S)ccc21 | > 100 | > 100 | – | > 100 | > 100 | > 100 | > 100 | > 100 | > 100 | > 100 | > 100 | – | 87.7 | – | –
9 | COc1ccc2[nH]c3c(C)c4ccnc(NCCCN(C)CCCN)c4c(C)c3c2c1 | 0.248 | 0.335 | 0.223 | > 32.1 | 0.538 | 0.0976 | 0.814 | 0.809 | 1.19 | – | 0.678 | > 100 | – | > 100 | 0.253
